Values of other authors as cited in patent US20250213575A1, “8-HETEROCYCLIC-3-(PHENYLSULFONYL)-[1,2,3]TRIAZOLO[1,5A]QUINAZOLIN-5(4H)-ONE DERIVATIVES AS ANTI-BACTERIALS” (priority 2022, published 2025).

Test system: AgrA-regulated toxin gene transcription such as hla, psma and pvl
Settings: across all four agr groups; cited from earlier work

## CC(C)c1ccc(S(=O)(=O)c2nnn3c2nc(O)c2ccccc23)cc1 [Savirin]
  modulation of AgrA-regulated toxin gene transcription: potent modulator
